PMC11191095, “QSAR Reveals Decreased Lipophilicity of Polar Residues Determines the Selectivity of Antimicrobial Peptide Activity” (ACS Omega, 2024)
Where a SMILES comes first, the peptide text is derived from it.

Experiments:
Assay in all cases: microbe, parasite or virus in culture
[1] = test system: E. coli LEC001; format: cell-based, Escherichia coli; settings: E. coli LEC001 (R)
Method in brief: (§1)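 Peptides 128→2 μg/mL, 2-fold series; inoculum ~5 × 10^5 CFU/mL from overnight culture (OD600 0.01, mixed 1:1). MHB non-cation-adjusted for bacteria, RPMI 1640 + 2% glucose for fungi. 37 °C, 20 h, OD600. MIC50/MIC90 at 50%/90% inhibition; n ≥ 3.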

[2] = test system: E. coli NCTC 12923; format: cell-based, Escherichia coli; settings: E. coli NCTC 12923 (S)
Method in brief: as §1

[3] = test system: A. baumannii ATCC 17978; format: cell-based, Acinetobacter baumannii; settings: A. baumannii ATCC 17978 (S)
Method in brief: as §1

[4] = test system: A. baumannii AYE; format: cell-based, Acinetobacter baumannii; settings: A. baumannii AYE (R)
Method in brief: as §1

[5] = test system: K. pneumoniae M6; format: cell-based, Klebsiella pneumoniae; settings: K. pneumoniae M6 (S)
Method in brief: as §1

[6] = test system: K. pneumoniae NCTC 13368; format: cell-based, Klebsiella pneumoniae; settings: K. pneumoniae NCTC 13368 (R)
Method in brief: as §1

[7] = test system: S. aureus (MRSA) 1199B; format: cell-based, Staphylococcus aureus; settings: S. aureus (MRSA) 1199B (R)
Method in brief: as §1

[8] = test system: S. aureus (MRSA) NCTC 13616; format: cell-based, Staphylococcus aureus; settings: S. aureus (MRSA) NCTC 13616 (R)
Method in brief: as §1

[9] = test system: S. aureus (MRSA) USA300; format: cell-based, Staphylococcus aureus; settings: S. aureus (MRSA) USA300 (R)
Method in brief: as §1

[10] = test system: S. aureus (MSSA) ATCC 9144; format: cell-based, Staphylococcus aureus; settings: S. aureus (MSSA) ATCC 9144 (S)
Method in brief: as §1

[11] = test system: C. auris TDG 1912; format: cell-based, Candida auris; settings: C. auris TDG 1912
Method in brief: as §1

[12] = test system: C. albicans NCPF 3281; format: cell-based; settings: C. albicans NCPF 3281
Method in brief: as §1

[13] = test system: C. glabrata NCPF 8018; format: cell-based; settings: C. glabrata NCPF 8018
Method in brief: as §1

[14] = test system: C. krusei NCPF 3876; format: cell-based; settings: C. krusei NCPF 3876
Method in brief: as §1

[15] = test system: C. parapsilosis NCPF 3209; format: cell-based; settings: C. parapsilosis NCPF 3209
Method in brief: as §1

[16] = test system: C. tropicalis NCPF 8760; format: cell-based; settings: C. tropicalis NCPF 8760
Method in brief: as §1

[17] = MHB, 37 °C, 20 h, OD600, min. three biological repeats
[18] = MHB, ~5×10^5 CFU/mL, 37 °C, 20 h, OD600, min. three biological repeats
[19] = 50% growth inhibition, RPMI 1640 + 2% glucose, 37 °C, 20 h
[20] = 90% growth inhibition, RPMI 1640 + 2% glucose, 37 °C, 20 h

CC(C)C[C@H](NC(=O)[C@H](CCCCN)NC(=O)[C@H](CO)NC(=O)[C@H](CCCCN)NC(=O)[C@H](Cc1c[nH]c2ccccc12)NC(=O)[C@H](C)NC(=O)[C@H](CCCCN)NC(=O)[C@@H](N)CCCCN)C(=O)N[C@@H](C)C(=O)N[C@@H](CCCCN)C(=O)N[C@@H](CCCCN)C(=O)N[C@@H](CC(C)C)C(=O)N[C@@H](CCCNC(=N)N)C(=O)N[C@@H](C)C(=O)N[C@@H](CCCCN)C(=O)NCC(=O)N[C@@H](CCCCN)C(N)=O [PS-PB-14a] (H-KKAWKSKLAKKLRAKGK-NH2)
Modal MIC [1, 17]: > 128 µg/mL | Modal MIC ([1]; shown in µM): > 63.8 µM | Modal MIC [2, 18]: > 128 µg/mL | Modal MIC ([2]; shown in µM): > 63.8 µM | Modal MIC [3, 17]: > 128 µg/mL | Modal MIC ([3]; shown in µM): > 63.8 µM | Modal MIC [4, 17]: > 128 µg/mL | Modal MIC ([4]; shown in µM): > 63.8 µM | Modal MIC [5, 17]: > 128 µg/mL | Modal MIC ([5]; shown in µM): > 63.8 µM | Modal MIC [6, 17]: > 128 µg/mL | Modal MIC ([6]; shown in µM): > 63.8 µM | Modal MIC [7, 17]: > 128 µg/mL | Modal MIC ([7]; shown in µM): > 63.8 µM | Modal MIC [8, 17]: > 128 µg/mL | Modal MIC ([8]; shown in µM): > 63.8 µM | Modal MIC [9, 17]: > 128 µg/mL | Modal MIC ([9]; shown in µM): > 63.8 µM | Modal MIC [10, 17]: > 128 µg/mL | Modal MIC ([10]; shown in µM): > 63.8 µM | Modal MIC50 ([11]; 50% growth inhibition, RPMI 1640 + 2% glucose, 37 °C, 20 h, OD600): > 128 µg/mL | Modal MIC90 ([11]; 90% growth inhibition, RPMI 1640 + 2% glucose, 37 °C, 20 h, OD600): > 128 µg/mL | Modal MIC50 ([11]; shown in µM): > 63.8 µM | Modal MIC90 ([11]; shown in µM): > 63.8 µM | Modal MIC50 [12, 19]: > 128 µg/mL | Modal MIC90 [12, 20]: > 128 µg/mL | Modal MIC50 ([12]; shown in µM): > 63.8 µM | Modal MIC90 ([12]; shown in µM): > 63.8 µM | Modal MIC50 [13, 19]: > 128 µg/mL | Modal MIC90 [13, 20]: > 128 µg/mL | Modal MIC50 ([13]; shown in µM): > 63.8 µM | Modal MIC90 ([13]; shown in µM): > 63.8 µM | Modal MIC50 [14, 19]: > 128 µg/mL | Modal MIC90 [14, 20]: > 128 µg/mL | Modal MIC50 ([14]; shown in µM): > 63.8 µM | Modal MIC90 ([14]; shown in µM): > 63.8 µM | Modal MIC50 [15, 19]: > 128 µg/mL | Modal MIC90 [15, 20]: > 128 µg/mL | Modal MIC50 ([15]; shown in µM): > 63.8 µM | Modal MIC90 ([15]; shown in µM): > 63.8 µM | Modal MIC50 ([16]; shown in µM): 31.9 µM | Modal MIC90 ([16]; shown in µM): 31.9 µM

KCLTLRSLKKTLKFCASGRT-NH2 [X1-20a, novel amidated frog AMP derivative, Xenopus laevis]
Modal MIC [1, 17]: > 128 µg/mL | Modal MIC ([1]; shown in µM): > 55 µM | Modal MIC [2, 18]: 8 µg/mL | Modal MIC ([2]; shown in µM): 3.4 µM | Modal MIC [3, 17]: 16 µg/mL | Modal MIC ([3]; shown in µM): 6.9 µM | Modal MIC [4, 17]: 16 µg/mL | Modal MIC ([4]; shown in µM): 6.9 µM | Modal MIC [5, 17]: 32 µg/mL | Modal MIC ([5]; shown in µM): 13.8 µM | Modal MIC [6, 17]: 64 µg/mL | Modal MIC ([6]; shown in µM): 27.5 µM | Modal MIC ([7]; shown in µM): > 55 µM | Modal MIC [8, 17]: > 128 µg/mL | Modal MIC ([8]; shown in µM): > 55 µM | Modal MIC [9, 17]: > 128 µg/mL | Modal MIC ([9]; shown in µM): > 55 µM | Modal MIC [10, 17]: 16 µg/mL | Modal MIC ([10]; shown in µM): 6.9 µM | Modal MIC50 ([11]; shown in µM): > 55 µM | Modal MIC90 ([11]; shown in µM): > 55 µM | Modal MIC50 [12, 19]: > 128 µg/mL | Modal MIC90 [12, 20]: > 128 µg/mL | Modal MIC50 ([12]; shown in µM): > 55 µM | Modal MIC90 ([12]; shown in µM): > 55 µM | Modal MIC50 [13, 19]: > 128 µg/mL | Modal MIC90 [13, 20]: > 128 µg/mL | Modal MIC50 ([13]; shown in µM): > 55 µM | Modal MIC90 ([13]; shown in µM): > 55 µM | Modal MIC50 [14, 19]: 64 µg/mL | Modal MIC90 [14, 20]: 64 µg/mL | Modal MIC50 ([14]; shown in µM): 27.5 µM | Modal MIC90 ([14]; shown in µM): 27.5 µM | Modal MIC50 [15, 19]: > 128 µg/mL | Modal MIC90 [15, 20]: > 128 µg/mL | Modal MIC50 ([15]; shown in µM): > 55 µM | Modal MIC90 ([15]; shown in µM): > 55 µM | Modal MIC50 [16, 19]: 16 µg/mL | Modal MIC90 [16, 20]: 32 µg/mL | Modal MIC50 ([16]; shown in µM): 6.9 µM | Modal MIC90 ([16]; shown in µM): 13.8 µM
